Results on one compound are retold here after patent US11247970B2, “Selective inhibition of gluconeogenic activity” (Dana-Farber Cancer Institute, Inc., priority 2017, dated 2022).

The target of one series is T1, PGC-1α (Mus musculus, UniProt O70343).
T1 sequence (O70343 1-797): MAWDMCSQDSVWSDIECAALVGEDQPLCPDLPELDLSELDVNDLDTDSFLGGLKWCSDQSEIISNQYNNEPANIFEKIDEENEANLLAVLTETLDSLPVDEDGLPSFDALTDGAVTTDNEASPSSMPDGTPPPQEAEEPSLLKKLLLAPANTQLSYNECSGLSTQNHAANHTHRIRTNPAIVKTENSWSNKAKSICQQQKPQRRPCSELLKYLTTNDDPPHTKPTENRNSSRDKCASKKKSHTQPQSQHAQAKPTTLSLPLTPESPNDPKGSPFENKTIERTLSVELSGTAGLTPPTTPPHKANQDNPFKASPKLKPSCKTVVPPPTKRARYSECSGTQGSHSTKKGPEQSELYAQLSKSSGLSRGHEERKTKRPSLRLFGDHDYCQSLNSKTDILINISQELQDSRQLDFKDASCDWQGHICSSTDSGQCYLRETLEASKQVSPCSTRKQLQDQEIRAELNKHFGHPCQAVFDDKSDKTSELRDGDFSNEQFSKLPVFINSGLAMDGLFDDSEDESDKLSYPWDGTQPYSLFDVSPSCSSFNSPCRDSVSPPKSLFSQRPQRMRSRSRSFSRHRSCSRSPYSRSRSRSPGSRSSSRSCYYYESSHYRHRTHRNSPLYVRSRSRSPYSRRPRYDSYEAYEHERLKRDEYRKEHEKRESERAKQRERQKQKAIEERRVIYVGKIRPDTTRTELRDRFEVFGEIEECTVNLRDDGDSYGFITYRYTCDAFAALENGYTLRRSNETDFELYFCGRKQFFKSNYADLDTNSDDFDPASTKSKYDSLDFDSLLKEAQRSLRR
In words: Western blot of PGC-1α acetylation in primary hepatocytes. It is filed as cell-based. Set-up: expressed in transfected cells; host or cells: primary hepatocytes of C57BL/6 mice infected with Ad-PGC-1α and Ad-GCN5. On the procedure: For measurement of acetylation, gene expression and glucose production SR-18292 ([…]) was added to cells overnight and fresh compound was added the following day for additional 3 h before collecting the cells (for total of ˜18 h treatment). Where insulin and glucagon stimulation were performed, the medium was changed to starvation medium (DMEM, 0.2% BSA, 2 mM sodium pyruvate, and 1% penicillin/streptomycin) with fresh compound for the last 3 h and cells were stimulated with either 100 nM insulin or 200 nM glucagon for an extra 1.5 h. For glucose measurements following PGC-1α over expression cells were incubated for the last 3 h in glucose-free medium (phenol-red/glucose free DMEM, 0.2% BSA, 2 mM sodium pyruvate and 20 mM sodium lactate or 10 mM glycerol in case glycerol was used as substrate). For glucose measurements following glucagon stimulation cells were incubated for the last 4 h in the same glucose-free medium that also contained glucagon (200 nM). The glucose level in the medium was measured using a glucose assay kit from Eton Bioscience Inc. by adding […] of assay buffer to […] of medium followed by 15 min incubation at 37° C. Absorbance was measured at 490 nm.
For PGC-1α acetylation detection in hepatocytes cells were infected with Ad-PGC-1α and Ad-GCN5. […]
In general terms: Immunoblotting shows a protein as a band on a membrane.

The nature of series [1]: Food intake and body weight of treated mice. The format is in vivo. On the procedure: All mice were purchased from Jackson laboratories and housed under a 12 h light/12 h dark cycle at 22° C. Before handling, mice were allowed to acclimate for at least 1 week in our animal facility. For in vivo studies with DIO mice, males 6-8 weeks old were fed HFD for the indicated time. For drug administration, SR-18292 was re-suspended in a 10% DMSO/10% Tween80/80% PBS solution at a final concentration of 6-12 mg/ml. Metformin was re-suspended in the same solution at a 20 mg/ml concentration. SR-18292 was injected via I.P. for 3 days between 4-5 pm and food was removed on day 3 at 5 pm. […] Metformin was administered via oral gavage. […] Insulin tolerance test was performed following the same dosing protocol, but mice were fasted for 4 hours after the forth injection before performing the test. Insulin was injected via I.P. (0.5 U/Kg) and blood glucose was measured every 20 minutes. Glycemia was measured by tail bleed using a glucometer (OneTouch). For all experiments, age- and body weight-matched animals were used. For protein, RNA extracts and biochemistry studies, livers were removed following each experiment and snap frozen in liquid nitrogen. For information on number of animals in each experiment please refer to FIGS. 4, 5 and S5 legends. All studies were performed according to protocols approved by Beth Israel Deaconess Medical Center's Animal Care and Use Committee.

Series [2] is described as follows: Fasting insulin and liver pAkt in treated mice. It is filed as in vivo. On the procedure: (§1) Serum samples were gathered from blood collected by cardiac puncture. Insulin was measured with Ultra Sensitive Mouse Insulin ELISA Kit (Crystal Chem, 90080). Kits used to measure alanine transaminase (EALT-100), aspartate transaminase (EASTR-100), lactate dehydrogenase (DLDH-100) were purchased from Bioassay Systems. Kits used to measure lactate (MAK 064), b-hydroxybutyrate (MAK 041), Triglycerides (TR0100) were purchased from Sigma. Kit used to measure cholesterol (C7510) was purchased from Pointe Scientific. Kit used to measure non-esterified fatty acids was purchased from Wako.

Series [3] in a line: Serum biochemistry for liver toxicity. It is filed as in vivo. The conditions noted are these: HFD mice. On the procedure:
as §1
Serum enzymatic activities of alanine transaminase (ALT), aspartate aminotransferase (AST), lactate dehydrogenase (LDH) and bilirubin levels from mice fed high fat diet and treated with SR-18292. n=7.

Structures are written as SMILES.

For `Cc1ccc(CN(CC(O)COc2cccc3[nH]ccc23)C(C)(C)C)cc1` (centres unmarked) [SR-18292, 1-((1H-indol-4-yl)oxy)-3-(tert-butyl(4-methylbenzyl)amino)propan-2-ol], the PGC-1α acetylation entry at PGC-1α (primary hepatocytes, Ad-PGC-1α and Ad-GCN5, 18 h) is “increased PGC-1α acetylation”. Further, the “PGC-1α acetylation in presence of deacetylase inhibitors” value at PGC-1α (with Ex-527 (SIRT1 inhibitor) and Trichostatin A) is listed as “increased acetylation of PGC-1α even in the presence of Ex-527”. Besides, the food intake entry in series [1] (first 48 hours of treatment) is “neither food intake nor body weight were changed”. In addition, in series [1] (mouse, in vivo), the body weight result is reported as “neither food intake nor body weight were changed”. The “basal (fasting) blood insulin levels” value in series [2] (HFD 13 weeks) is given as “not significantly changed”. In addition, the “phosphorylation of Akt in liver” value in series [2] (fasted mice) is on record as “not changed”. Also, the “liver toxicity by serum ALT, AST, LDH and bilirubin” value in series [3] is recorded as “not observed”. In series [3] (serum, 45 mg/kg, n=7), this compound had an ALT of 9.21 U/L, an AST of 29.94 U/L, a Bilirubin of 0.33 mg/dL and an LDH of 64.44 IU/L.
